From PMC4773098, “Inhibition of IKKα by BAY61-3606 Reveals IKKα-Dependent Histone H3 Phosphorylation in Human Cytomegalovirus Infected Cells” (PLoS ONE, 2016)
pIC50: −log10 of the molar value. Counter-ions that a name gives are not always drawn.

Experiments:
Type in all cases: biochemical
[1] = target: T1, SYK (Homo sapiens, UniProt P43405); assay: in vitro radiometric kinase assay at […] BAY61-3606 (Fig 3B)
T1 construct: Full length His-tagged protein

[2] = target: T2, GCK (germinal center kinase, MAP4K2) (Homo sapiens, UniProt Q12851); assay: as above
T2 construct: Residues 1–473 glutathione-s-transferase (GST) tagged protein
T2 sequence (Q12851 1-473): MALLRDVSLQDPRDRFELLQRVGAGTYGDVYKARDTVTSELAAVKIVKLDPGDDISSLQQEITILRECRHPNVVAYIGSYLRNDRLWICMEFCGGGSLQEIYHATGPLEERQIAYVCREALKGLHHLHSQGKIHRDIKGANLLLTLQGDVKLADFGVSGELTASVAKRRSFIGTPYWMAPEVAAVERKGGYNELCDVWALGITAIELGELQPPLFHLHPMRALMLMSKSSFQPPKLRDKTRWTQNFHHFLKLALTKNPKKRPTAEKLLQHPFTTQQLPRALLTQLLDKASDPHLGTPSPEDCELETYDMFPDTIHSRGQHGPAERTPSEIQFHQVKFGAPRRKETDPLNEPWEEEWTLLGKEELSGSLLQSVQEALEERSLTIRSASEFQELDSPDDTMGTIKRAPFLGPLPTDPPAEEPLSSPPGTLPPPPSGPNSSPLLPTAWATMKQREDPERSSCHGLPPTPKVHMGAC

[3] = target: T3, IKKα (Homo sapiens, UniProt O15111); assay: in vitro radiometric kinase assay ([γ-33P-ATP], KinaseProfiler), dose response
T3 construct: gene CHUK; Full length GST-tagged protein
T3 sequence (O15111 1-745): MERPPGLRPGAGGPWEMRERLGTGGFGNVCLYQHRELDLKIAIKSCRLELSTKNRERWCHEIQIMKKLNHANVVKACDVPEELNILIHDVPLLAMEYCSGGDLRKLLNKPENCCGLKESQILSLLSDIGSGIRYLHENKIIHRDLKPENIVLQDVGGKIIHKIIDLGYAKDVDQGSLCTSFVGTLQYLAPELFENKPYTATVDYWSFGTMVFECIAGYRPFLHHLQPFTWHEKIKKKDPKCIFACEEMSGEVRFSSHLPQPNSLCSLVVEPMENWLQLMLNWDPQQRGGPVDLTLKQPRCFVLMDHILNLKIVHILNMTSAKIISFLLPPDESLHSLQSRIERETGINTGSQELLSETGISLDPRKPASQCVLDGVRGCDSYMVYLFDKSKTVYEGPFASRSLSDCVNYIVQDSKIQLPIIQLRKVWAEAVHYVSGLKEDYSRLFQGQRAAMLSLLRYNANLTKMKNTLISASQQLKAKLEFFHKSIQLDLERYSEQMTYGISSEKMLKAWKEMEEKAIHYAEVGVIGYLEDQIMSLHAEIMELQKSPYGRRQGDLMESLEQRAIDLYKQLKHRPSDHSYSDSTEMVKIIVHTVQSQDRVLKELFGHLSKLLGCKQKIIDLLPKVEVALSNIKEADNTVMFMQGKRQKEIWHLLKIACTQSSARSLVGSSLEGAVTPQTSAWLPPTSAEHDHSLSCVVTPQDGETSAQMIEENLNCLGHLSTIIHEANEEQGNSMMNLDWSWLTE

Structure (SMILES): COc1ccc(-c2cc3nccn3c(Nc3ncccc3C(N)=O)n2)cc1OC [BAY61-3606, 2-[7-(3,4-dimethoxyphenyl)-imidazo[1,2-c]pyrimidin-5-ylamino]nicotinamide dihydrochloride]
- in vitro radiometric kinase assay at 10 μM BAY61-3606 (Fig 3B) [1]: We observed that BAY61-3606 is a potent inhibitor of SYK, GCK and IKKα, but not IKKβ or LYN
- in vitro radiometric kinase assay at 10 μM BAY61-3606 (Fig 3B) [2]: We observed that BAY61-3606 is a potent inhibitor of SYK, GCK and IKKα, but not IKKβ or LYN
- pIC50 [3]: 7.35
